Assay results from patent US10894777B2, “TG2 inhibitor piperazine compounds and uses thereof” (UNIVERSITY OF OTTAWA, priority 2016, dated 2021).

Legend:
Assay type in all cases: cell-based, human
[1] = test system: SCC-13 cells; assay: Spheroid formation / survival assay, SCC-13 cells (ECS cells); settings: for spheroid formation (cancer stem cell survival): 8 d spheroids, 20 μM, 48 h
Experimental: Spheroid formation assay. Cells, maintained as monolayer cultures in growth medium consisting of DMEM (Invitrogen, Frederick, Md.) supplemented with 4.5 mg/ml D-glucose, […] L-glutamine, […] sodium pyruvate, and 5% fetal calf serum, were harvested, collected by centrifugation, and resuspended in spheroid medium comprising DMEM/F12 (1:1) (DMT-10-090-CV, Mediatech Inc., Manassas, Va.) supplemented with 2% B27 serum-free supplement (17504-044, Invitrogen, Frederick, Md.), 20 ng/ml EGF (E4269, Sigma, St. Louis, Mo.), 0.4% bovine serum albumin (B4287, Sigma) and 4 μg/ml insulin (19278 Sigma, St. Louis, Mo.). The cells (40,000) were plated in 9.6 cm^2 wells in Costar six well ultra-low attachment cluster dishes (4371, Corning, Tewksbury, Mass.). Spheroid size and number was monitored with time in culture as previously described (Adhikary, G. et al., PLoS One 8:e84324, 2013).
Spheroid formation assay. Spheroid formation assays were exactly as outlined previously (Adhikary, G. et al., PLoS ONE 8:e84324, 2013), except that the spheroids were grown in six well ultra-low attachment Costar cluster dishes (4371, Corning, Tewksbury, Mass.).
(§1) Spheroid formation assay. Spheroid formation assays were as reported previously (Adhikary, G. et al., PLoS One 8:e84324, 2013), except that the spheroids were grown in 6-well ultralow attachment Costar cluster dishes (Corning).

[2] = test system: TG2 fusion protein mCer-TG2-YFP; assay: Fluorescence lifetime imaging (FLIM) of mCer-TG2-YFP conformation, SCC-13 cells; settings: NC9, VA4, VA5 0-20 μM 24 or 48 h; Cp4d 0-10 μM 48 h
Experimental: We monitored the impact of each inhibitor on intracellular TG2 structure using FLIM (Fluorescence Lifetime Imaging Microscopy). FLIM is a quantitative method of assessing fluorescence lifetime that measures energy transfer between donor and accept probes Fluorescence lifetime is measured in nanoseconds and a short lifetime correlates with close contact between probes (FIG. 29B). An advantage of this method is that fluorescent lifetimes are independent of probe concentration. In the present experiments, we expressed in cells a TG2 fusion protein in which the donor probe (mCER) is fused to the N-terminus and the acceptor probe (YFP) at the C-terminus (FIG. 29B). mCER and YFP comprise an ideal donor/acceptor pair; the donor probe is excited by laser illumination and energy transfer to the acceptor is monitored. The fluorescent lifetime is shorter when TG2 is in the closed conformation which brings mCER and YFP close together. SCC-13 cells were electroporated with empty vector, mCER-TG2 or mCER-TG2-YFP.
(§2) Fluorescence lifetime imaging. Fluorescence lifetime images were acquired using FLIM system (Alba 5 from ISS). […] Emission was observed through bandpass filter 480/35 nm (Chroma Technology) and detected by a photomultiplier H7422-40 (Hamamatsu). FLIM data were acquired using time-domain modality (SPC-830 TCSPC module from Becker and Hickl GmbH). […] To account for intensity heterogeneity within single intensity images, two to five consecutive scans were acquired and summed to build FLIM intensity image for lifetime analysis. […] FLIM data were analyzed using VistaVision Suite software (Vista v.213 from ISS). Lifetime images were generated by fitting data using single exponential intensity decay model. Intensity threshold for lifetime analysis was set of at least 3-fold above the intensity of dim cells and fitting procedure was performed for binned pixels at level of 3 (7×7 pixels). Lifetime distribution within image is represented with histogram showing pixel frequency of specific lifetime. The average lifetime values with standard deviations were calculated based on all processed pixels in lifetime image. FRET values were calculated according to the formula ET=1−(τDA/τD), where τD is the lifetime of donor (mCer-TG2) and τDA is the lifetime of donor-acceptor pair (mCer-TG2—YFP).

[3] = test system: TG2 fusion protein mCer-TG2-YFP; assay: Fluorescence lifetime imaging (FLIM) of TG2 conformation, HaCaT cells; settings: 5 μM
Experimental: HaCaT cells were electroporated with mCer-TG2 or […] and then treated with 0 or 5 μM of the indicated inhibitor and fluorescent lifetime was monitored. […] HaCaT cells were preloaded with fluorescein cadaverine, treated with the indicated inhibitor and then challenged with calcium ionophore, washed and assayed for FC incorporation. […] The beads were then washed, boiled in Laemmli buffer and electrophoresed for immunoblot detection of TG2. Cell equivalent quantities of total and bound samples were electrophoresed to facilitate comparison of GTP bound versus total. […] Experiments were performed as described in FIGS. 31 (F) and (G).
as §2

[4] = test system: HaCaT cells; assay: Spheroid formation assay, HaCaT cells; settings: 20 μM, 48 h
Experimental: as §1

| SMILES | spheroid formation (cancer stem cell survival) [1] | fluorescence lifetime of mCer-TG2-YFP [2] | fluorescence lifetime / TG2 structure [3] | ECS cell spheroid formation [4] | spheroid number, formation from single cells ([1]; 10 or 20 μM single addition, 0-14 days, after day eight) | spheroid number, pre-formed spheroids ([1]; spheroids grown for 8 days, then treated) |
| --- | --- | --- | --- | --- | --- | --- |
| C=CC(=O)NCCCC[C@H](NC(=O)OCc1ccccc1)C(=O)N1CCN(C(=O)c2cc3ccc(O)cc3oc2=O)CC1 [VA5, (S)-Benzyl(6-acrylamido-1-(4-(7-hydroxy-2-oxo-2H-chromene-3-carbonyl)piperazin-1-yl)-1-oxohexan-2-yl)carbamate] | inhibited spheroid formation | markedly increased | increased fluorescence lifetime | suppressed | – | – |
| C=CC(=O)NCCCC[C@H](NC(=O)OCc1ccccc1)C(=O)N1CCN(S(=O)(=O)c2cccc3c(N(C)C)cccc23)CC1 [VA4, (S)-benzyl(6-acrylamido-1-(4-((5-(dimethylamino)naphthalen-1-yl)sulfonyl)piperazin-1-yl)-1-oxohexan-2-yl)carbamate] | inhibited spheroid formation | markedly increased | increased fluorescence lifetime | suppressed | – | – |
| C=CC(=O)NCCCC[C@H](NC(=O)OCc1ccccc1)C(=O)NCCOCCOCCNS(=O)(=O)c1cccc2c(N(C)C)cccc12 [NC9] | inhibited spheroid formation | markedly increased | increased fluorescence lifetime | suppressed | selectively declined | reduced spheroid number |
